Measurements: ChEMBL document CHEMBL1123796, “New antitumor agents containing the anthracene nucleus” (1987)

Tests used:
Assay type in all cases: functional
[1] = In vitro inhibition of human UACC-66 ovarian tumor cell line growth.; settings: read-out: ID50 (the source's name)
WiDr = experiment: Tested in vitro for inhibitory activity of human tumor cell growth against WIDR colon tumor, by using clonogenic assays.; settings: read-out: ID50 (the source's name)
[2] = Tested in vitro for inhibitory activity of human tumor cell growth against HEC 1A endometrial tumor, by using clonogenic assays.; settings: read-out: ID50 (the source's name)
RPMI-8226 = experiment: In vitro inhibition of human 8226 myeloma tumor cell line growth.; settings: read-out: ID50 (the source's name)
P388 [3] = experiment: Antileukemic activity against P-388/ADR (P-388 cells resistant to adriamycin) in mice at a dose of 100 mg/kg administered intraperitoneally after 3 day treatment(Trial 2); settings: Mus musculus, P388, ip, 72 h, route intraperitoneal
P388 [4] = experiment: Antileukemic activity against P-388 in mice at a dose of 67 mg/kg administered intraperitoneally after 3 day treatment; settings: Mus musculus, P388, ip, 72 h, route intraperitoneal
P388 [5] = experiment: Antileukemic activity against P-388/ADR (P-388 cells resistant to adriamycin) in mice at a dose of 44 mg/kg administered intraperitoneally after 3 day treatment(Trial 2); settings: Mus musculus, P388, ip, 72 h, route intraperitoneal
P388 [6] = experiment: Antileukemic activity against P-388 in mice at a dose of 44 mg/kg administered intraperitoneally after 3 day treatment; settings: Mus musculus, P388, ip, 72 h, route intraperitoneal
P388 [7] = experiment: Antileukemic activity against P-388 in mice at a dose of 100 mg/kg administered intraperitoneally after 3 day treatment; settings: Mus musculus, P388, ip, 72 h, route intraperitoneal
P388 [8] = experiment: Antileukemic activity against P-388/ADR (P-388 cells resistant to adriamycin) in mice at a dose of 30 mg/kg administered intraperitoneally after 3 day treatment(Trial 2); settings: Mus musculus, P388, ip, 72 h, route intraperitoneal
P388 [9] = experiment: Antileukemic activity against P-388 in mice at a dose of 67 mg/kg administered intraperitoneally after 3 day treatment(Trial 2); settings: Mus musculus, P388, ip, 72 h, route intraperitoneal
P388 [10] = experiment: Antileukemic activity against P-388 in mice at a dose of 30 mg/kg administered intraperitoneally after 3 day treatment(Trial 2); settings: Mus musculus, P388, ip, 72 h, route intraperitoneal
P388 [11] = experiment: Antileukemic activity against P-388/ADR (P-388 cells resistant to adriamycin) n mice at a dose of 67 mg/kg administered intraperitoneally after 3 day treatment(Trial 2); settings: Mus musculus, P388, ip, 72 h, route intraperitoneal
P388 [12] = experiment: Antileukemic activity against P-388 in mice at a dose of 100 mg/kg administered intraperitoneally after 3 day treatment(Trial 2); settings: Mus musculus, P388, ip, 72 h, route intraperitoneal
P388 [13] = experiment: Antileukemic activity against P-388 in mice at a dose of 125 mg/kg administered intraperitoneally after 3 day treatment; settings: Mus musculus, P388, ip, 72 h, route intraperitoneal
P388 [14] = experiment: Antileukemic activity against P-388 in mice at a dose of 44 mg/kg administered intraperitoneally after 3 day treatment(Trial 2); settings: Mus musculus, P388, ip, 72 h, route intraperitoneal

NCCN(CCO)Cc1c2ccccc2c(CN(CCN)CCO)c2ccccc12
IC50 [1]: 5.76 µM
IC50 (WiDr): 5.04 µM

c1ccc2c(CC3=NCCN3)c3ccccc3c(CC3=NCCN3)c2c1
IC50 [1]: 4.36 µM
IC50 [2]: 5.6 µM

CN(C)CCCNCc1c2ccccc2c(CNCCCN(C)C)c2ccccc12
IC50 (RPMI-8226): 11 µM
IC50 [2]: 56.8 µM

CCN1CCCC(NCc2c3ccccc3c(CNC3CCCN(CC)C3)c3ccccc23)C1 (stereo unspecified)
IC50 (RPMI-8226): 0.04 µM
IC50 (WiDr): 5.63 µM

c1ccc2c(CNCCN3CCOCC3)c3ccccc3c(CNCCN3CCOCC3)c2c1
ILS at 100 mg/kg (P388 [3]): 40%
IC50 [1]: 0.03 µM
ILS at 67 mg/kg (P388 [4]): 33%
ILS at 44 mg/kg (P388 [5]): 15%
IC50 (RPMI-8226): 0.02 µM
ILS at 44 mg/kg (P388 [6]): 28%
ILS at 100 mg/kg (P388 [7]): -34%
ILS at 30 mg/kg (P388 [8]): 5%
ILS at 67 mg/kg (P388 [9]): 9%
ILS at 30 mg/kg (P388 [10]): 4%
ILS at 67 mg/kg (P388 [11]): 15%
ILS at 100 mg/kg (P388 [12]): 9%
ILS at 125 mg/kg (P388 [13]): -81%
ILS at 44 mg/kg (P388 [14]): -5%
IC50 (WiDr): 0.02 µM

OCCCCCNCc1c2ccccc2c(CNCCCCCO)c2ccccc12
IC50 [1]: 24.7 µM
IC50 (RPMI-8226): 4.67 µM
IC50 (WiDr): 13.4 µM

OCCOCCNCc1c2ccccc2c(CNCCOCCO)c2ccccc12
IC50 [1]: 6.57 µM
IC50 (RPMI-8226): 0.23 µM
IC50 (WiDr): 2.91 µM

CN1CCN(Cc2c3ccccc3c(CN3CCN(C)CC3)c3ccccc23)CC1
IC50 (RPMI-8226): 0.1 µM
IC50 (WiDr): 10.4 µM
